Measurements as given in article PMC12030062, “From In Vitro Cytotoxicity to In Vivo Zebrafish Assays: A Study on 3,3-Dichloro β-, γ- and δ-Lactams and Their Biological Activity Profiles” (Pharmaceuticals, 2025).
Converted amounts (≈) assume the structure as drawn.

Tests used:
[1] = tested on: A431 cell line (squamous cell carcinoma); test: Cell viability, NRU assay, A431; assay type: cell-based, human
Method: Two different endpoints, 3-(4,5-dimethyl-2-thiazolyl)-2,5-diphenyltetrazolium bromide (MTT) and neutral red uptake (NRU), were used to assess differences in cell-induced cytotoxicity. […] In addition, NRU evaluates the interaction of these drugs with the plasmatic membrane. Cell responses were determined from the MTT [16] and NRU [17] assays, using the two proposed cell lines. Cytotoxicity assays were performed at concentrations equal to 80 and 250 µg/mL. The IC50 value, referring to the half-maximal inhibitory concentration, was determined as a key parameter in cytotoxicity studies (Table 1). It plays a crucial role in evaluating cell viability and assessing cellular responses to various drugs or toxins. For cases where IC50 values were below 80 µg/mL, additional studies at lower concentrations were conducted to accurately determine these values. […] The selectivity index (SI), used as a measurement of action against the tumor cell line in comparison with a normal cell line, was also included.
• In Vitro Assay Using Human Erythrocytes • - Acquisition and Extraction of the Erythrocytes Human blood samples were obtained from the Banc de Sang i Teixits de Barcelona (Spain) from the Catalan Department of Health. Blood was deposited in tubes with the anticoagulant EDTA-K3. Blood samples were centrifuged at 3000 rpm and 4 °C for 10 min (Megafuge 2.0 R. Heraeus Instruments, Hanau, Germany) to induce sedimentation. Plasma was extracted with a Pasteur pipette. Next, the residual pellet was washed with PBS at pH 7.4. This procedure was repeated three times to remove residual leukocytes and platelets and to concentrate the erythrocytes. Following the last wash, the erythrocyte suspension was diluted (1:1) in PBS at pH 7.4 to obtain a suitable erythrocyte suspension (cell density of 8 × 10^9 cell/mL). • - Hemolysis Assay The hemolysis assay determined the capability of different compounds to induce the hemolysis of the erythrocyte membrane. Stock solutions of each compound at 1 mg/mL in PBS at pH 7.4 were prepared. Different volumes (10–80 μL) were placed in polystyrene tubes, and an aliquot of 25 µL of the erythrocyte suspensions was added to each tube. The final volume was 1 mL. The tubes were incubated at room temperature under rotatory conditions. Then, the tubes were centrifuged at 10,000 rpm for 5 min. The supernatants’ absorbance at 540 nm (Shimadzu UV-160A, Shimadzu, Duisburg, Germany) was compared with that of the positive (erythrocytes hemolyzed with distilled water) and negative (erythrocyte suspension in PBS at pH 7.4) controls. The degree of hemolysis was determined using the following equation: Hemolysis (%) = 100 × (Abs − Abs0)/(Abs100 − Abs0) where Abs, Abs0, and Abs100 are the absorbance of the test samples, of the suspension treated with isotonic phosphate–buffered saline (PBS), and of the suspension of complete hemolysis treated with distilled water, respectively. • In Vitro Essay Using Cell Cultures The murine Swiss albino fibroblasts (3T3) and the squamous cell carcinoma (A431) cell lines were obtained from Celltec UB. Cells were grown in DMEM medium (4.5 g/L glucose) supplemented with 10% (v/v) FBS, 2 mM L-glutamine, 100 U/mL penicillin, and 100 µg/mL streptomycin at 37 °C with 5% CO2. Cells were routinely cultured in 75 cm^2 culture flasks and were trypsinized using trypsin–EDTA when the cells reached approximately 80% confluence. The trypan blue assay, which allows for the direct identification and enumeration of the live (unstained) and dead (blue) cells in the cell population, was used to evaluate the viability of the cells in the cell suspension obtained. • - Cell Viability Assays Cell lines of 3T3 (1 × 10^5 cells/mL) and A431 (5 × 10^4 cells/mL) were grown at defined densities in the 60 central wells of a 96-well plate. The cells were incubated for 24 h in 5% CO2 at 37 °C. […]

Zebrafish embryos = assay type: in vivo; details: 74 hpf after 2-h washout; all tested concentrations up to 3.4 µg/mL
Method: Additionally, at 74 hpf, following a 2-h washout period, the response to a tactile stimulus or touch-evoked response, also known as a TER, was evaluated in embryos. This assay requires the embryos to have proper neuromuscular function. […] Further studies might be needed to elucidate the specific mechanisms by which the compound affects neurodevelopment or motor function and to determine whether these effects translate to other organisms. These findings are consistent with the broader body of research on anticancer agents, highlighting the importance of neurotoxicity evaluation in drug development and reinforcing the need for ongoing research to address these concerns. The videos and figures related to this part of the work are available in the Supplementary Materials.
• Zebrafish egg production and exposure The study was conducted in accordance with the local legislation and institutional requirements, according to the Generalitat de Catalunya Decree 53/2013, which regulates the use of animals for experimental and other scientific purposes. […] At the end of the test, dysmorphogenesis was evaluated in the live embryos only. The average lethality and dysmorphogenesis were calculated for 10 embryos per concentration, followed by averaging the results of at least three independent experiments. […]

CC(C)(C)N1C(=O)C(Cl)(Cl)C1c1ccccc1 (stereo not shown) [Compound 1]
IC50 (NRU) A431 ([1]; 24 h incubation, NRU endpoint, A431): 35.74 ± 3.24 µg/mL (≈ 131 µM)
IC50 ([1]; Homo sapiens, A-431, 24 h, 24 h incubation, NRU endpoint, A431): 35 µg/mL (≈ 129 µM)
SI (NRU), selectivity index ([1]; SI = IC50 (3T3)/IC50 (A431), NRU): >>6.99
touch-evoked response (TER), swimming distance (Zebrafish embryos): significant neurodevelopmental adverse effect
